Measurements taken from publication PMC9586926, “An efflux-susceptible antibiotic-adjuvant with systemic efficacy against mouse infections” (Scientific Reports, 2022).
Where a SMILES comes first, the peptide text is derived from it. [ ]: non-standard residue; d: D form. The star is where a group is joined. 12Ado = NCCCCCCCCCCCC(=O)O; Decanoyl = CCCCCCCCCC(=O)*; Dab = NCC[C@H](N)C(=O)O

Assays:
E. coli = test: MIC, broth microdilution; format: cell-based, Escherichia coli; conditions: broth microdilution in LB, 18–24 h, 37 °C; n = 4 strains; published data in bold (not discernible)
Description: (§1) Bacteria used in this study consisted of standard American Type Culture Collection (ATCC; Biological Industries, Beit Haemek, Israel) strains, clinically isolated (CI; Sourasky Medical Center, Tel Aviv, Israel) strains, as well as isogenic mutant strains. Gram-negative bacteria included Acinetobacter baumannii ATCC 19606; Escherichia coli ATCC 25922, 35218, CFT073, CI 14384, 16327, and the isogenic pair Ag100 (wild-type) and its efflux deficient mutant Ag100a (ΔacrAB); Klebsiella pneumoniae CI 1287, 224; Pseudomonas aeruginosa ATCC 27853, CI 1278, 8634; Salmonella enterica serovar Typhimurium ATCC 14028 (wild-type) and its isogenic efflux deficient mutant ΔacrAB. Bacteria were grown in Luria–Bertani broth (LB; 5 g/l NaCl, 5 g/l yeast extract, 10 g/l tryptone; pH = 7.0) at 37 °C with shaking. Over-night cultures were diluted 10-folds into fresh growth-medium and incubated at 37 °C with shaking until reaching mid-logarithmic phase. Then, bacterial concentrations were adjusted using O.D.600 nm measurements, and bacteria were subjected to the experimental procedures listed herein.
(§2) MIC was determined according to the broth microdilution method: antimicrobials were subjected to serial twofold dilutions in LB medium, and incubated with 5 × 10^5 CFU/ml of bacteria (final volume of 200 µl) for 18–24 h at 37 °C. Then, O.D.620 nm was measured (BioTek Instruments Synergy HT; Winooski, VT, USA), and the MIC was defined as the lowest antimicrobial concentration for which no increase in O.D.620 nm was evident, compared to the untreated control.

K. pneumoniae = test: MIC, broth microdilution; format: cell-based, Klebsiella pneumoniae; conditions: broth microdilution in LB, 18–24 h, 37 °C; n = 2 strains
Description: as §1, §2

A. baumannii = test: MIC, broth microdilution; format: cell-based, Acinetobacter baumannii; conditions: broth microdilution in LB, 18–24 h, 37 °C; n = 1 strain
Description: as §1, §2

murine RBC = test: Hemolysis; format: cell-based; conditions: 1% hematocrit murine RBC, 3 h, 37 °C
Experimental: Permeabilization of red blood cells (RBC) was evaluated using absorbance measurements of extracellular hemoglobin. Serial twofold dilutions of lipopeptides were incubated with 1% hematocrit of murine RBC for 3 h at 37 °C with shaking. Samples were then centrifuged at 20,000 RCF for 5 min, and absorbance of the supernatants was measured at 450 nm (BioTek Instruments Synergy HT; Winooski, VT, USA). Percent hemolysis was then calculated by (AS − AN)/(AP − AN) × 100; where AS, AN, and AP represent the absorbance of the sample, negative control (PBS) and positive control (Milli-Q water), respectively. LC50 values were extracted from trend-lines generated for linear-regions of plots correlating lipopeptide concentrations and percent hemolysis.

K. pneumoniae 1287 = test: Combination with antibiotics, modified checkerboard titration; format: cell-based, Klebsiella pneumoniae
Experimental: as §2
Lipopeptides and antibiotics combinations were assessed using a modified version of the checkerboard titration method: Antibiotics MIC was determined in LB medium containing sub-inhibitory lipopeptide concentrations. The sensitization factor (SF)[46] was then calculated by SF = MICA/MICC, where “MICA” is the antibiotic MIC in absence of an adjuvant and “MICC “ is the antibiotic MIC in presence of an adjuvant, for a specified adjuvant concentration. Combinations were classified as synergistic when antibiotics MIC were decreased by > 4 folds. Alternatively, the fractional inhibitory concentration index (FICI) was calculated by FICI = MICC1/MICA1 + MICC2/MICA2, where “MICC1” and “MICC2” respectively specify the antibiotic and the adjuvant MIC values upon their combination, whereas “MICA1” and “MICA2” respectively specify the antibiotic and the adjuvant MIC values when tested individually. Combinations were classified as synergistic for FICI < 0.5.

E. coli 25922 = test: Peritonitis-sepsis infection model in neutropenic mice; format: in vivo; conditions: n = 10
Experimental: The study is reported in accordance with ARRIVE guidelines.
Lipopeptides potential application in monotherapy and/or combination-therapies was explored with two infection models. In the peritonitis-sepsis model, mice (n = 10 per group) were first rendered neutropenic by two intraperitoneal (I.P.) injections of 0.3 ml containing 150 mg/kg and 100 mg/kg cyclophosphamide, administered 4 days and 1 day before the experiment, respectively. […] Mice survival was recorded for up to 7 days. In a variant assay, bacteria in PBS (1.4 × 10^6) were pre-treated with 10 µM lipopeptides for 15 min, similarly administered, and mice survival was recorded for up to 3 days. In the urinary-tract infection (UTI) model, mice (N = 5 mice per group) were anesthetized by a single I.P. injection (0.2 ml) containing a mixture of ketamine (100 mg/kg) and xylazine (5 mg/kg). Following application of an analgesic 2% lidocaine gel on their penises, mice were infected intra-urethraly using a 24-gauge catheter with 1.2 × 10^8 CFU/mouse (0.05 ml) and treated with the vehicle control (S.C., 1 h post-infection), 2 mg/kg rifampin (oral gavage, immediately before anesthesia), 7.5 mg/kg q.i.d. lipopeptides (S.C., starting 1 h post-infection), or both. Mice were sacrificed 24 h post-infection, their bladder and kidneys aseptically excised, suspended in 5 ml of sterile PBS, homogenized for 3 min using a bench-top homogenizer, serially tenfold diluted in saline, plated on LB agar, and incubated over-night at 37 °C for enumeration.

E. coli Ag100a (ΔacrAB) = test: MIC, broth microdilution, efflux deficient mutant; format: cell-based, Escherichia coli; conditions: E. coli Ag100a (ΔacrAB) versus Ag100
Description: as §1
MIC was determined according to the broth microdilution method: antimicrobials were subjected to serial twofold dilutions in LB medium, and incubated with 5 × 10^5 CFU/ml of bacteria (final volume of 200 µl) for 18–24 h at 37 °C. […]

`CCCCCCCCCC(=O)N[C@@H](CCN)C(=O)N[C@@H](CCN)C(=O)NCCCCCCCCCCCC(=O)N[C@@H](CCN)C(N)=O` [C10BBc12B, decanoyl-bis.diaminobutyrate-aminododecanoyl-diaminobutyrate-amide] (Decanoyl-[Dab][Dab][12Ado][Dab]-NH2) was tested, and the “MIC E. coli (n=4)” value (E. coli) was 50 µM, the “MIC K. pneumoniae (n=2)” value (K. pneumoniae) was over 50 µM and the “MIC A. baumannii (n=1)” value (A. baumannii) was over 50 µM. For the same molecule, the “LC50 Erythrocytes (50% hemolysis)” value (murine RBC) was over 50 µM, the “sensitization efficiency to rifampin” value (K. pneumoniae 1287) was 130,000 folds and the “survival rate, monotherapy” value (E. coli 25922; 1.7 × 10^6 CFU/mouse, […] C10BBc12B S.C. 1 h post-infection or 20 mg/kg rifampin oral gavage) was 40%. For the same molecule, the “efficacy, monotherapy, higher inoculum” value (E. coli 25922; 1.9 × 10^6 CFU/mouse, […] C10BBc12B S.C. or 20 mg/kg rifampin oral) was “virtually no efficacy”, the “mice mortality after infection with bacteria pre-treated with lipopeptide” value (E. coli 25922; modified model, 1.4 × 10^6 CFU/mouse pre-treated 15 min with 10 µM in PBS, I.P., three days) was “delayed the onset of mice mortality and reduced the overall lethality rate” and the “MIC change against efflux deficient mutant versus wild-type” value (E. coli Ag100a (ΔacrAB)) was “eightfold reduction in MIC value”.
